Measured values published in patent US7241738B2, “Peptides effective in the treatment of tumors and other conditions requiring the removal or destruction of cells” (Nymox Pharmaceutical Corporation, priority 2001, dated 2007).
Values joined by “and” are separate entries in the source; they are usually repeats but may differ in a detail not shown here. Equal entries are not always repeated. Peptide text beside a SMILES is read from it.

How the values were obtained:
[1] = system: muscle tissue, subcutaneous connective tissue, and dermis at injection sites; experiment: Injection into skin, subcutaneous tissue and extremity skeletal muscle of normal rats; histopathology at 24 hours; format: in vivo, rat
From the text: The individual foci of infiltration were excised, fixed in 10% formalin, embedded in paraffin, and stained and examined by standard histopathological methods.
The controls received saline alone.
Tissues were excised, fixed in 10% formalin, embedded in paraffin, and stained and examined by standard histopathological methods.

[2] = system: normal rodent muscle tissue, subcutaneous connective tissue, dermis; human and non-human origin tumors; conditions: dermis and a variety of human and non-human origin tumors in rodent models; cited from earlier work
[3] = system: rat prostate; experiment: Intraprostatic infusion in rats; prostate volume and histology at 72 hours; format: in vivo, rat (Sprague-Dawley); conditions: for prostate histology (H & E): intraprostatic infusion, rats sacrificed after 72 hours
Description: (§1) Male Sprague-Dawley rats (300 gram weight range) were anesthetized with ether and given NTP peptide #6 by intraprostatic infusion after open surgical visualization of the prostate. The injections consisted of 300 μl of NTP peptide #6, 1 mg/mL in PBS pH 7.4. (1.0 mg/kg) (n=8), control injections of PBS alone (n=6), and controls with no injection (n=2). Rats were painlessly sacrificed after 72 hours. Prostate glands were dissected, fixed in 10% buffered formalin for 24 hours, embedded in paraffin, sectioned, and stained with H & E. For each animal the entire prostate gland was embedded and sectioned. All stained sections were examined histologically and measured. For each prostate at least 4 histological sections were examined, and for each histological section two cross-sectional diameters (D) at 90° from each other were measured (total of ≧8 measurements per prostate). The mean diameter from these measurements for each prostate was used to estimate volume according to
as §1, with “Related Peptide #2” for “NTP peptide #6”, “Related Peptide #2,” for “NTP peptide #6,”, “>8” for “≧8”
The controls were the same as Example 1.
Normal rats were injected in the prostate as in the above Examples 1 and 4 with Related Peptide #3. Rats were painlessly sacrificed after 72 hours and their prostate glands were examined as in the above Examples 1 and 4.

## CC[C@H](C)[C@H](NC(=O)[C@H](CCC(=O)O)NC(=O)[C@H](CC(C)C)NC(=O)[C@H](CCCCN)NC(=O)[C@@H](NC(=O)[C@H](CCCNC(=N)N)NC(=O)[C@H](CO)NC(=O)[C@@H](N)CC(C)C)[C@@H](C)CC)C(=O)N[C@@H](CCCCN)C(=O)O [NTP peptide #7, LSRIKLEIK] (H-LSRIKLEIK-OH; N-terminus and C-terminus assumed)
[1]
  spread of necrosis beyond the site of injection: did not appear to spread far beyond the site of injection

## AD7c-NTP: ˜41 kD neural thread protein, membrane associated phosphoprotein, SEQ ID NO. 1
[2]
  causing cell death in vivo: effective agent for causing cell death

## GDHGRPNLSRLKLAIKYEVKKM [Related Peptide #1]
[1]; at 0.1-1 mg/mL in saline
  histopathology of tissue at injection sites: cell death and necrosis of tissue at the injection sites

## GLLFPVFSVCYLIAPKSPLGL [Related Peptide #3]
[3]
  prostate histology (H & E): Significant cell loss and atrophy of prostate

## IDQQVLSRIKLEIKRCL [NTP peptide #6]
[3]
  prostate histology (H & E): extensive loss of glandular epithelium, flattening and atrophy
[3]; intraprostatic open infusion 1.0 mg/kg (300 μl, 1 mg/mL in PBS pH 7.4), 72 hours, vs untreated or PBS treated controls, estimated from mean diameters
  reduction in prostate volume compared to controls: 45% and > 40%

## QQSIAVKFLAVFGVSI [Related Peptide #2]
[3]
  prostate histology (H & E): significant cell loss and atrophy in the prostate
